ChEMBL document CHEMBL5321211, “Synthesis and evaluation of anti-yellow fever virus activity of new 6-aryl-3-R-amino-1,2,4-triazin-5(4H)-ones” (Eur J Med Chem, 2023)
Values after ≈ are worked out from the molar mass of the structure shown.

Legend:
[1] = Cytotoxicity against African green monkey Vero cells assessed as inhibition of cell growth by neutral red uptake assay; type: toxicity, cell-based, Chlorocebus sabaeus
[2] = Selectivity index, ratio of IC50 for cytotoxicity against African green monkey Vero cells assessed as inhibition of cell growth by neutral red uptake assay to EC50 for antiviral activity against Yellow fever virus 17D infected in African green monkey Vero assessed as reduction in cytopathic effect; type: toxicity, cell-based; conditions: read-out: Ratio IC50/EC50
[3] = system: Yellow fever virus; test: Antiviral activity against Yellow fever virus 17D infected in African green monkey Vero assessed as reduction in cytopathic effect preincubated with compound for 5 mins followed by viral infection and measured at 72 to 120 hrs by neutral red uptake assay; type: functional, organism-based
[4] = system: Yellow fever virus; test: Antiviral activity against Yellow fever virus assessed as reduction in cytopathic effect by neutral red uptake assay; type: functional, organism-based
[5] = Selectivity index, ratio of CC50 for cytotoxicity against human Huh-7 cells to EC50 for antiviral activity against wild typeYellow fever virus infected in human Huh-7 cells assessed as reduction in virus replication; type: toxicity, cell-based; conditions: read-out: Ratio CC50/EC50
[6] = system: Yellow fever virus; test: Antiviral activity against wild typeYellow fever virus infected in human Huh-7 cells assessed as reduction in virus replication; type: functional, organism-based
[7] = system: Yellow fever virus; test: Antiviral activity against Yellow fever virus; type: functional, organism-based
[8] = system: Yellow fever virus; test: Antiviral activity against Yellow fever virus 17D infected in African green monkey Vero assessed as reduction in cytopathic effect preincubated with compound for 5 mins followed by viral infection and measured at 7 days; type: functional, organism-based
[9] = system: Yellow fever virus; test: Antiviral activity against Yellow fever virus 17D infected in African green monkey Vero assessed as reduction in cytopathic effect preincubated with compound for 5 mins followed by viral infection and measured at 72 to 120 hrs; type: functional, organism-based
[10] = system: Yellow fever virus; test: Antiviral activity against Yellow fever virus 17D infected in African green monkey Vero assessed as reduction in cytopathic effect preincubated with compound for 5 mins followed by viral infection and measured at 72 to 120 hrs by visual analysis; type: functional, organism-based
[11] = Selectivity index, ratio of CC50 for cytotoxicity against African green monkey Vero cells to EC50 for antiviral activity against Yellow fever virus 17D infected in African green monkey Vero assessed as reduction in cytopathic effect; type: toxicity, cell-based; conditions: read-out: Ratio CC50/EC50
[12] = system: Yellow fever virus; test: Antiviral activity against Yellow fever virus 17D infected in African green monkey Vero assessed as reduction in virus yield preincubated with compound for 5 mins followed by viral infection and measured at 72 to 120 hrs; type: functional; conditions: time 4325-7205 min
[13] = Cytotoxicity against African green monkey Vero cells assessed as inhibition of cell growth by visual analysis; type: toxicity, cell-based, Chlorocebus sabaeus
[14] = Selectivity index, ratio of IC50 for cytotoxicity against African green monkey Vero cells assessed as inhibition of cell growth by visual analysis to EC50 for antiviral activity against Yellow fever virus 17D infected in African green monkey Vero assessed as reduction in cytopathic effect; type: toxicity, cell-based; conditions: read-out: Ratio IC50/EC50
[15] = system: Yellow fever virus; test: Antiviral activity against Yellow fever virus 17D infected in Huh-7 cells assessed as reduction in cytopathic effect; type: functional, organism-based
[16] = system: Yellow fever virus; test: Antiviral activity against Yellow fever virus African green monkey Vero cells assessed as reduction in cytopathic effect; type: functional, organism-based
[17] = system: Yellow fever virus; test: Antiviral activity against Yellow fever virus 17D assessed as reduction in cytopathic effect incubated for 30 mins; type: functional, organism-based; conditions: 0.5 h
[18] = system: Yellow fever virus; test: Antiviral activity against Yellow fever virus infected in human A549 cells assessed as reduction in virus replication; type: functional, organism-based
[19] = Selectivity index, ratio of CC50 for cytotoxicity against human A549 cells to EC50 for antiviral activity against Yellow fever virus infected in human A549 cells assessed as reduction in virus replication; type: toxicity, cell-based; conditions: read-out: Ratio CC50/EC50

Structure (SMILES) | IC50 [1] [µg/mL] | selectivity ratio [2] | EC50 [3] [µg/mL] | also measured
Cc1ccc(Cc2nnc(NC3CCCCC3)[nH]c2=O)cc1 | > 100 | > 3.3 | 30 (≈ 101 µM) | –
CC(=O)Nc1ccc(Nc2nnc(Cc3ccc(C)cc3)c(=O)[nH]2)cc1 | > 100 | – | > 100 | –
NC(=O)C1(N2CCCCC2)CCN(C(=O)CSc2nc3ccccc3o2)CC1 | – | – | – | EC50 [4]: 7.4 µM
NC(=O)c1ncn([C@@H]2O[C@H](CO)[C@@H](O)[C@H]2O)n1 [RIBAVIRIN] | – | – | – | selectivity ratio [5]: 58; EC50 [6]: 4.9 µM
O=c1cnn([C@@H]2O[C@H](CO)[C@@H](O)[C@H]2O)c(=O)[nH]1 [6-AZAURIDINE] | – | – | – | EC50 [7]: 46 µM
COc1ccc(Nc2nnc(Cc3ccc(C)cc3)c(=O)[nH]2)cc1OC | 18 (≈ 51.1 µM) | 1.6 | 11 (≈ 31.2 µM) | –
COc1ccccc1Nc1nnc(Cc2ccc(C)cc2)c(=O)[nH]1 | > 100 | > 31 | 0.94 (≈ 2.92 µM) | EC50 [8]: 4.2 µg/mL (≈ 13 µM); EC50 [9]: 13 µM; EC50 [10]: 4.2 µg/mL (≈ 13 µM); selectivity ratio [11]: > 36; EC90 [12]: 50 µg/mL (≈ 155 µM); IC50 [13]: 27 µg/mL (≈ 83.8 µM); selectivity ratio [14]: 6.4
Cc1ccc(Cc2nnc(Nc3cccc(C)c3)[nH]c2=O)cc1 | > 100 | > 29 | 0.48 (≈ 1.57 µM) | EC50 [8]: 10 µg/mL (≈ 32.6 µM); EC50 [9]: 33 µM; EC50 [10]: 10 µg/mL (≈ 32.6 µM); selectivity ratio [11]: 23; EC90 [12]: 158 µg/mL (≈ 516 µM); IC50 [13]: 58 µg/mL (≈ 189 µM)
CCOc1ccccc1Nc1nnc(Cc2ccc(C)cc2)c(=O)[nH]1 | > 100 | – | > 100 | –
CC[C@H](C)[C@@H]1N=C(c2ccccc2)c2cc(Cl)ccc2N(CC(=O)O)C1=O | – | – | – | EC50 [15]: 0.21 µM
CC(C)c1ccc(Cc2nnc(NCCN3CCOCC3)[nH]c2=O)cc1 | > 100 | – | > 100 | –
CCn1c(=O)/c(=C2\Sc3c(F)cccc3N2C)s/c1=C\c1cccc[n+]1C | – | – | – | EC50 [7]: < 1 µM
Cc1ccc(Cc2nnc(Nc3ccccc3F)[nH]c2=O)cc1 | > 100 | > 19 | 1 (≈ 3.22 µM) | EC50 [10]: 5 µg/mL (≈ 16.1 µM); IC50 [13]: 43 µg/mL (≈ 139 µM); selectivity ratio [14]: 8.6
Cc1ccc(Cc2nnc(Nc3cc(C)ccc3C)[nH]c2=O)cc1 | > 100 | > 4.3 | 23 (≈ 71.8 µM) | –
Nc1c(C(=O)Nc2nnc(-c3ccccc3)s2)sc2nc3c(cc12)CCCCC3 | – | – | – | EC50 [16]: 6.97 µM
Cc1ccc(Cc2nn3c(=O)c4ccccc4nc3[nH]c2=O)cc1 | > 100 | – | > 100 | –
C/C(=N\Nc1ccccc1)c1sc(-c2cc(Cl)nc(Oc3ccc(Cl)cc3)c2)nc1C | – | – | – | EC50 [17]: 1.6 µM

Structure (SMILES) | IC50 [1] [µg/mL] | selectivity ratio [2] | EC50 [3] [µg/mL] | also measured
C[C@@H]1[C@@H](CO)O[C@@H](n2ccc(N)nc2=O)[C@]1(C)O | – | – | – | EC50 [7]: 0.7 µM
COc1ccc(Nc2nnc(Cc3ccc(C)cc3)c(=O)[nH]2)c(OC)c1 | > 100 | > 17 | 1 (≈ 2.84 µM) | EC50 [8]: 3.5 µg/mL (≈ 9.93 µM); EC50 [9]: 9.9 µM; EC50 [10]: 3.5 µg/mL (≈ 9.93 µM); selectivity ratio [11]: 51; EC90 [12]: 28 µg/mL (≈ 79.5 µM); IC50 [13]: 58 µg/mL (≈ 165 µM); selectivity ratio [14]: 17
O=C1OC2(c3ccccc31)c1cc(I)c(O)c(I)c1Oc1c2cc(I)c(O)c1I [ERYTHROSINE] | – | – | – | EC50 [18]: 0.57 µM; selectivity ratio [19]: > 263
COc1ccc(OC)c(Nc2nnc(Cc3ccc(C)cc3)c(=O)[nH]2)c1 | 16 (≈ 45.4 µM) | 5.5 | 2.9 (≈ 8.23 µM) | –
CCOc1ccc(Nc2nnc(Cc3ccc(C)cc3)c(=O)[nH]2)cc1 | > 100 | – | > 100 | –
COc1ccc(Nc2nnc(Cc3ccc(C(C)C)cc3)c(=O)[nH]2)cc1OC | > 38 | – | > 38 | –
Cc1ccc(Cc2nnc(Nc3ccccc3)[nH]c2=O)cc1 | > 100 | > 7.1 | 6.2 (≈ 21.2 µM) | EC50 [10]: 7.4 µg/mL (≈ 25.3 µM); IC50 [13]: 16 µg/mL (≈ 54.7 µM); selectivity ratio [14]: 2.2
NC(=O)c1nc(F)cnc1O [FAVIPIRAVIR] | – | – | – | EC50 [7]: 330 µM
Cc1cccc(Nc2nnc(Cc3ccc(F)cc3)c(=O)[nH]2)c1C | > 100 | – | > 100 | –
O=c1[nH]c(Nc2ccc(F)cc2)nnc1Cc1ccc(F)cc1 | > 100 | – | > 100 | –
COC(=O)c1ccc(Nc2nnc(Cc3ccc(C)cc3)c(=O)[nH]2)cc1 | > 100 | – | > 100 | –
CC(C)OC(=O)[C@H](C)N[P@](=O)(OC[C@H]1O[C@@H](n2ccc(=O)[nH]c2=O)[C@](C)(F)[C@@H]1O)Oc1ccccc1 [SOFOSBUVIR] | – | – | – | selectivity ratio [5]: 90; EC50 [6]: 4.2 µM
Cc1ccc(Cc2nnc(Nc3cccc(F)c3)[nH]c2=O)cc1 | > 100 | > 14 | 1 (≈ 3.22 µM) | EC50 [8]: 6.2 µg/mL (≈ 20 µM); EC50 [9]: 20 µM; EC50 [10]: 6.2 µg/mL (≈ 20 µM); selectivity ratio [11]: > 53; EC90 [12]: 65 µg/mL (≈ 209 µM); IC50 [13]: 51 µg/mL (≈ 164 µM); selectivity ratio [14]: 8.2
CCOC(=O)c1ccc(Nc2nnc(Cc3ccc(C)cc3)c(=O)[nH]2)cc1 | > 100 | – | > 100 | –
Cc1ccc(Cc2nnc(Nc3ccccc3C)[nH]c2=O)cc1 | > 100 | > 5.6 | 18 (≈ 58.8 µM) | –
Cc1ccc(Cc2nnc(Nc3ccc(F)cc3)[nH]c2=O)cc1 | > 100 | > 14 | 1 (≈ 3.22 µM) | EC50 [10]: 10 µg/mL (≈ 32.2 µM); IC50 [13]: 51 µg/mL (≈ 164 µM); selectivity ratio [14]: 5.1
